Results as given in patent US8361797B2, “Myeloma cell culture in transferrin-free low iron medium” (Medimmune Limited, priority 2003, dated 2013).
Entries after “also recorded” stand apart in the source; their conditions may differ. Like-named read-outs stand apart in the source and are kept apart here.

How the values were obtained:
hybridoma cell lines = details: cited from earlier work
[1] = test system: recombinant GS-NS0 mouse myeloma cell line (Cell line A); assay type: cell-based
[2] = test system: recombinant GS-NS0 mouse myeloma cell line (Cell line A); assay type: cell-based; remark: listed apart in the source
hybridoma cells = details: cited from earlier work
NSO myeloma cell lines = details: FAC alone, 0.2 mg/L; cited from earlier work
[3] = test system: mouse hybridoma cell line (9E10)
Description: A mouse hybridoma cell line (9E10), producing anti-Myc antibody, previously subcultured in modified CDSS supplemented with 1 mg/L human transferrin and 6 mM Glutamine was used to inoculate experimental flasks at an inoculation density of 1×10^5 cells/ml.
Flasks were subcultured by dilution with fresh medium back to 1×10^5 cells/ml at 3 day intervals. On the third subculture flasks were allowed to overgrow. Cell counts were performed using the trypan blue exclusion method.

cell line A = details: 1 mg/L FAC, serum free and protein free GSF medium
Source text: Innoculum for these fermentations was provided by subculture of the cells in media the same as that used in the fermentations.

[4] = test system: recombinant NS0 mouse myeloma cell line selected using a G418 selection system; details: 1 mg/L FAC vs 1 mg/L transferrin and 0.1 mg/L FAC
Source text: After 5 days, flasks were subcultured and then allowed to follow the full growth cycle.

[5] = test system: GS-NSO cell lines (Cell Lines C, D and E); details: protein free FAC medium, 4.5 L and 100 L
Description: Cell Line C was grown at both 4.5 and 100 L scale, Cell Line D at 4.5 L scale and Cell Line E at 100 L scale.

[6] = test system: recombinant GS-NS0 cell line (Cell line B)
Description: Cells resuspended in this medium were then used to inoculate experimental flasks at an inoculation density of 2×10^5 cells/ml.
All flasks were also supplemented with 1 ml/L of a 1000× concentrated cholesterol and fatty acid supplement (CLOC).
Flasks were subcultured by dilution with fresh medium back to 2×10^5 cells/ml at 5 day intervals. On the second subculture flasks were allowed to overgrow to saturation. Cell counts were performed using the trypan blue exclusion method. Antibody titre analysis was performed using analytical protein A hplc against a homologous standard.

Compound: O=C([O-])CC(O)(CC(=O)[O-])C(=O)[O-].[Fe+3] [FC, ferric citrate]
- concentration required to support hybridoma cell growth with equivalence to transferrin (hybridoma cell lines): 500 µM
- concentration giving growth equivalent to transferrin containing control (maximum viable cell number and area underneath the growth curve) [1]: ≥ 10 mg/L
- concentration of FC relative to FAC required for cell growth equivalent to transferrin [1]: 10 ×
- proliferation over subcultures [1]: unable to proliferate beyond the first subculture; also recorded: unable to proliferate beyond the second subculture
- antibody titre compared to the transferrin containing control [2]: at least as much, and in the case of 10 mg/L FC significantly more antibody

Compound: O=c1cccccc1O [tropolone, reference compound]
- optimum concentration (hybridoma cells; tropolone used with FAC): 5 µM

Compound: ferric ammonium citrate [FAC]
- support of NSO myeloma growth (NSO myeloma cell lines): could not support the growth of the NSO myeloma cell lines
- proliferation over subcultures ([3]; 0.2 mg/L): unable to proliferate beyond the first subculture
- proliferation over subcultures ([3]; 0.4 mg/L): unable to proliferate beyond the first subculture
- proliferation over subcultures ([3]; 1 mg/L): unable to proliferate beyond the second subculture
- proliferation over subcultures ([3]; 2 mg/L): unable to proliferate beyond the second subculture
- proliferation over subcultures ([3]; 10 mg/L): unable to proliferate beyond the second subculture
- FAC concentration required by hybridoma cell lines relative to GS-NS0 cells for continuous cell growth ([3]; agitated suspension culture): > 100 ×
- concentration required to support growth ([3]; hybridoma 9E10, agitated suspension): ≥ 50 mg/L
- concentration required for growth equivalent to transferrin containing control, maximum viable cell number ([3]; overgrow cultures): 100 mg/L
- concentration giving growth equivalent to transferrin containing control, cumulative cell hours (CCH) ([3]; overgrow cultures, integral of area underneath growth curve): 50 mg/L
- support of hybridoma growth (hybridoma cells; 10 mg/L, agitated suspension culture, WO 94/02592): this was not the case in agitated suspension culture
- support of hybridoma growth (hybridoma cells; FAC alone, between 0.1 and 10 mg/L, no transferrin or tropolone): incapable of supporting the growth of hybridoma cells
- optimum concentration (hybridoma cells; FAC used with tropolone): 0.2 mg/L
- growth and antibody production (cell line A): able to support good growth and antibody production in both media
- support of hybridoma growth (hybridoma cell lines; 10 mg/L, static culture, WO 94/02592): able to support hybridoma growth in static culture
- growth vs transferrin containing medium [4]: Equivalent growth
- growth and antibody productivity [5]: supports good growth of, and antibody productivity in, a wide range of cell lines
- proliferation over subcultures ([1]; 0.2 mg/L): able to proliferate after the first division, but was then unable to grow further
- concentration able to support continuous cell growth ([1]; duplicate of the experiment (FIG. 1c)): 0.2 mg/L
- concentration able to support continuous cell growth over several subcultures and during the overgrow culture ([1]; modified CDSS, no transferrin, agitated suspension, three subcultures at 3 day intervals): ≥ 0.4 mg/L
- concentration giving growth equivalent to transferrin containing control (maximum viable cell number and area underneath the growth curve) ([1]; overgrow cultures): ≥ 1 mg/L
- more antibody produced at 0.4 mg/L than at 100 mg/L ([2]; culture with 0.4 mg/L vs culture with 100 mg/L): over 30%
- antibody titre compared to the transferrin containing control ([2]; overgrow cultures, sandwich ELISA): at least as much, and in the majority of the cases significantly more antibody
- concentration supporting growth equivalent to positive control culture ([6]; control 5 μM tropolone and 0.4 mg/L FAC, GSF medium): ≥ 0.8 mg/L
- concentration supporting antibody production at least equivalent to control ([6]; overgrow cultures, protein A hplc): ≥ 0.8 mg/L
